Measured values published in US9603845B2, “Prophylactic agent and/or therapeutic agent for stress urinary incontinence” (priority 2012, dated 2017).
Marks after values point to notes of the source that are not given here.

Assays:
female SD rats = assay: Leak point pressure (LPP) of a rat: intravesical pressure when urinary leakage occurs; format: in vivo; conditions: 3 mg/kg intravenous, 5 minutes after administration; for Leak point pressure (LPP): urethane-anesthetized, spinal cord-transected female SD rats, average ± standard error, physiological saline 24.6±0.6
[1] = test system: stress urinary incontinence model rats; conditions: rat, in vivo

Row | SMILES | LPP compared with the physiological saline group (in words) (female SD rats) | Leak point pressure (LPP) (female SD rats) | Frequency of urinary incontinence, 30 minutes after administration [1] | Frequency of urinary incontinence, 2 hours after administration [1] | Number of rats that express urinary incontinence due to the electrical stimulus (in words) [1] | Frequency of urinary incontinence, before administration ([1]; po)
1 | CCCOC(C(=O)OC1CCN(C)CC1)(c1ccccc1)c1ccccc1 [propiverine, α,α-diphenyl-α-n-propoxy acetic acid 1-methyl-4-piperidyl ester, reference compound] | no significant difference | 24.9±1.9 cmH2O |  |  |  | 
2 | CCCOC(C(=O)OC1CCNCC1)(c1ccccc1)c1ccccc1 [the compound of the present invention, 4-piperidyl diphenylpropoxyacetate] | significantly higher | 31.1±2.3 cmH2O | 4 | 3* | significantly decreased | 8
